From patent EP0365210A1, “Hydroxamic acid derivatives” (KYOWA HAKKO KOGYO CO., LTD., priority 1988, dated 1990) come the findings set out here.

In general, IC50 refers to the concentration that inhibits the measured activity by half. A low value points to higher potency.

For this assay, the target named is T1, leucocyte 5-lipoxygenase (Rattus norvegicus, UniProt P12527).
T1 construct: rat basophilic leukemia cells (RBL-1, ATCC No. CRL 1378) were used as the source of 5-lipoxygenase; host or cells: RBL-1 rat basophilic leukemia cells
T1 sequence (P12527 1-673): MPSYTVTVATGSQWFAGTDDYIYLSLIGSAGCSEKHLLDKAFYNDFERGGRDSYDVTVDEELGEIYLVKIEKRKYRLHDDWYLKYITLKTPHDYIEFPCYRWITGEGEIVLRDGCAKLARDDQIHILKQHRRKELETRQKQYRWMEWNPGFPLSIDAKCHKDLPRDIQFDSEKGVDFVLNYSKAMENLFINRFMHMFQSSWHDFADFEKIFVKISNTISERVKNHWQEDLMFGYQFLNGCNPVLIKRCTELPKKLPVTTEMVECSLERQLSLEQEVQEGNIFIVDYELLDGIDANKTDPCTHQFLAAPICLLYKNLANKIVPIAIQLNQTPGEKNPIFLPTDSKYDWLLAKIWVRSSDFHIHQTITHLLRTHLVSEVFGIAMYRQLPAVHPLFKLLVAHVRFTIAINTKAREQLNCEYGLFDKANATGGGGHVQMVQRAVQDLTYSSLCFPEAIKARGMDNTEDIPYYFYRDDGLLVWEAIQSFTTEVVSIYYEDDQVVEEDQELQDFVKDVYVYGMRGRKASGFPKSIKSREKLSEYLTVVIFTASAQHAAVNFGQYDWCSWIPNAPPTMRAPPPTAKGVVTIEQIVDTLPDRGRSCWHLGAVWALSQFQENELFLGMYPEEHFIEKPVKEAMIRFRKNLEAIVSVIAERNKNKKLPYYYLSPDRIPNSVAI
Put plainly: Inhibitory activity against leucocyte 5-lipoxygenase (5-HETE formation by HPLC, RBL-1 cells as enzyme source). The format is biochemical. The note with it: rat basophilic leukemia cells (RBL-1) as source of 5-lipoxygenase; arachidonic acid substrate; 37°C; pH 7.4. The procedure: a) Method for determining the inhibitory activity against leucocyte 5-lipoxygenase:
Lipoxygenase activity was determined by a modification of the method of B.A. Jakschik et al. [Biochem. Biophys. Res. Commun., 95, 103 (1980)]. That is, rat basophilic leukemia cells (RBL-1, ATCC No. CRL 1378) were used as the source of 5-lipoxygenase. The cells were contacted with a test compound in 60 µl of 0.17 M Trishydrochloride buffer (pH 7.4) containing […] calcium chloride, 3.3 mM adenosine triphosphate and 1 mM glutathione at 37°C for 5 minutes. Then,-50 µl of 60 µM arachidonic acid was added to the reaction mixture and the mixture was allowed to stand at 37° C for 5 minutes. To the mixture were added 200 µl of methanol and 13-hydroxylinoleic acid as the internal standard, followed by thorough shaking. The mixture was allowed to stand at -20 C for 30 minutes and then centrifuged at 12000 r.p.m. for 10 minutes. After the supernatant was evaporated to dryness in a stream of nitrogen, 200 µl of 75% aqueous methanol was added to the residue. The resulting solution (100 µl) was subjected to high performance liquid chromatography to quantitatively determine 5-HETE (5-hydroxyeicosatetraenoic acid). The absorption at 234 nm was measured with a UV absorption monitor and the amount of 5-HETE produced was determined from the peak area corrected by the peak of the internal standard. The test was carried out using the test compound at various concentrations and the concentration that inhibits 50% enzyme activity was determined as the inhibitory activity.
With `CCCCCCCCCCCC(=O)N(O)CCCCCN1C(=O)CCCC1=O` [Compound 5], the IC50 was 36 nM.

Take `CCCCCCCCCCCN(O)C(=O)CCCCCN1C(=O)CCC1=O` [Compound 2]: the 50% inhibitory concentration (IC50) turned out to be 20 nM.

Consider `CCCCCCCCCCCN(O)C(C)=O` [Compound 10], for which the midpoint of inhibition, the IC50, lay at 34 nM.

With `CCCCCCCCCCCN(O)C(=O)c1ccccc1` [Compound 12], half-maximal inhibition (IC50) required 300 nM.

In turn, `CCCCCCCCCCCC(=O)N(O)CCCCCN1CCCC1=O` [Compound 6] had an IC50 of 25 nM.

The compound `CCCCCCCCCCCC(=O)N(O)CCCCCCCN1C(=O)CCC1=O` [Compound 1] gave an IC50 of 20 nM.

In turn, `CCCCCCCCCCCN(O)C(=O)CCC(=O)OC` [Compound 7] showed an IC50 of 38 nM.

Compound `CCCCCCCCCCCC(=O)N(O)CCCN1C(=O)CCC1=O` [Compound 3] yielded an IC50 of 20 nM.

With `CCCCCCCCCCCC(=O)N(O)CCCCCN1C(=O)c2ccccc2C1=O` [Compound 4], the IC50 was found to be 40 nM.

Consider `CCCCCCCCCCCN(O)C(=O)CCC` [Compound 11], for which the IC50 was determined as 44 nM.
